Source: publication PMC10600239, “Selective MCL-1 inhibitor ABBV-467 is efficacious in tumor models but is associated with cardiac troponin increases in patients” (Communications Medicine, 2023)

Tested on: AMO-1 xenografts
Assay: AMO-1 xenograft efficacy (tumor volume, body weight)
Assay type: in vivo, mouse
Details: mice, 25 mg/kg on a Q7D × 2 schedule
Description: All animal studies were conducted in accordance with the guidelines approved by the Institutional Animal Care and Use Committees of AbbVie. The research protocol was approved by In Vivo Pharmacology at AbbVie prior to study initiation but was not publicly registered or disclosed. Female C.B-17 SCID-beige mice (AMO-1, OPM-2, NCI-H929, and OCI-AML2 xenografts) and female NSG mice (MV4-11-Red.Fluc systemic) were purchased from Charles River Laboratories (Wilmington, MA). Animals were housed in a light cycle-controlled room with HEPA filtration at 22 °C. Animals had nesting and climbing cage topper as the primary environmental enrichment. Animals were inoculated subcutaneously in the right flank with 5 × 10^6 (AMO-1, OPM-2, NCI-H929, and OCI-AML2) or intravenous (IV) with 5 × 10^6 (MV4-11-Red.Fluc). The inoculation volume (0.2 mL) comprised a 50:50 mixture of cells in growth media and Matrigel (BD Biosciences) for subcutaneous injections and 100% phosphate-buffered saline for IV administration. All cell lines used in this publication were authenticated using IDEXX for STR profiling as well as their IMPACT and human IMPACT panels for pathogen screening. Electronic calipers were used to measure the length and width of each tumor 2 to 3 times per week. Tumor volume was estimated by applying the following equation: volume = length × width^2/2. All groups remained blinded during measurements and dosing; only veterinary staff were aware of group identity. When tumors reached approximately 200 mm^3, mice were randomized by match and distributed into treatment and control groups. All xenograft trials were conducted using 5 to 10 mice per group, and all mice were ear tagged and monitored individually throughout the studies. […] Tumor burden in the systemic MV4-11-Red.Fluc experiment was measured using an IVIS® spectrum from PerkinElmer by taking the total photon flux of the entire dorsal side of an individual mouse. […] A background control mouse that was tumor naive but received D-Luciferin was placed in the upper left corner of each image. The total flux from this animal was subtracted from the total flux of each animal present in the image.
For in vivo studies, maximal tumor growth inhibition (TGI) was calculated as the greatest treatment response using the following equation: Maximal TGI = (1 − mean tumor volume of the treated group/mean tumor volume of the vehicle control group) × 100. The tumor growth delay (TGD) percentage was determined as the percentage increase of the median time period for the treatment group to reach an arbitrary tumor volume of 1000 mm^3 relative to the vehicle control group. […] A power analysis was conducted using historical data to determine the number of animals required to yield significance of 0.05 at a 30% difference. […] Data from experiments in vivo were analyzed using the student’s t-test for TGI values and the Mann–Whitney U test for TGD using Excel and GraphPad Prism. Fisher’s exact test was used to probe significance of differences in response frequency.

In the case of `Cc1c(Cl)c2c(Cl)c(C)c1-c1c(-c3ccc(F)cc3)sc3ncnc(c13)O[C@@H](C(=O)O)Cc1cc(ccc1OCc1ccnc(-c3ccc(OC[C@H]4COCCO4)cc3)n1)OC[C@@H](CN1CCN(C)CC1)O2` [ABBV-467], the tolerability is reported as “not well-tolerated”.
